How the values were obtained:
[1] = system: KMS-12-PE Bcl-2 G101V; assay: In vitro cytotoxicity CellTiter-Glo 48 h, KMS-12-PE Bcl-2 G101V; assay type: cell-based; settings: for Ratio (G101V/WT): C50 KMS-12-PE Bcl-2 G101V over C50 KMS-12-PE Bcl-2 WT; for IC50: Homo sapiens, KMS-12-PE, 48 h, CellTiter-Glo, C50 = concentration needed to reach 50% of the cellular viability
Method in brief: (§1)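 Transduce KMS-12-PE with Bcl-2 WT or G101V lentivirus, then FACS-sort RFP-positive cells. Add compounds in an 11-point dilution series and incubate 48 h at 37 °C. Measure ATP-based luminescence with CellTiter-Glo and derive C50 (50% viability).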

[2] = system: BCL2 G101V; assay: TR-FRET competitive binding assay, BCL2 G101V; set-up: species or system human; settings: ratio Ki BCL2 G101V / Ki BCL2 WT
Method in brief: (§2)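 Terbium-labelled N-terminal Halo-fusion BCL2 or BCLXL (E. coli), 0.5 nM, competed against fluorescein-labelled PUMA peptide (2 or 20 nM) for 2 h at 23° C in 50 mM Hepes pH 7.5, 150 mM NaCl, 5% DMSO. TR-FRET 520/495 nm ratio gave IC50 by four-parameter fit; Ki derived from IC50.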

[3] = target: BCL2 G101V (Homo sapiens, UniProt P10415, G101V); assay: TR-FRET competitive binding assay, BCL2 G101V; settings: BCL2 G101V; Ki determined from IC50; read-out: TR_FRET EKI_Bcl2 G101V
Method in brief: as §2

[4] = target: BCL2 WT (Homo sapiens (Human), UniProt P10415); assay: TR-FRET competitive binding assay, BCL2 WT; settings: Ki determined from IC50, read-out: TR_FRET EKI_Bcl2 WT
Method in brief: as §2

[5] = system: KMS-12-PE Bcl-2 WT; assay: In vitro cytotoxicity CellTiter-Glo 48 h, KMS-12-PE Bcl-2 WT; assay type: cell-based; settings: Homo sapiens, KMS-12-PE, C50 = concentration needed to reach 50% of the cellular viability
Method in brief: as §1

[6] = target: BCLXL WT (Homo sapiens (Human), UniProt Q07817); assay: TR-FRET competitive binding assay, BCLXL WT; settings: for Ki: BCLXL WT, Ki determined from IC50, read-out: TR_FRET EKI BclxL; for TR_FRET EKI BCLxL/WT selectivty ratio: ratio Ki BCLxL / Ki BCL2 WT
Method in brief: as §2

[7] = target: BCL2 D103Y (Homo sapiens, UniProt P10415, D103Y); assay: TR-FRET competitive binding assay, BCL2 D103Y; settings: Ki determined from IC50, read-out: TR_FRET EKI_Bcl2 D103Y
Method in brief: as §2

Chain of BCLXL WT (Q07817 other isoform, or with tags, fused parts or gaps): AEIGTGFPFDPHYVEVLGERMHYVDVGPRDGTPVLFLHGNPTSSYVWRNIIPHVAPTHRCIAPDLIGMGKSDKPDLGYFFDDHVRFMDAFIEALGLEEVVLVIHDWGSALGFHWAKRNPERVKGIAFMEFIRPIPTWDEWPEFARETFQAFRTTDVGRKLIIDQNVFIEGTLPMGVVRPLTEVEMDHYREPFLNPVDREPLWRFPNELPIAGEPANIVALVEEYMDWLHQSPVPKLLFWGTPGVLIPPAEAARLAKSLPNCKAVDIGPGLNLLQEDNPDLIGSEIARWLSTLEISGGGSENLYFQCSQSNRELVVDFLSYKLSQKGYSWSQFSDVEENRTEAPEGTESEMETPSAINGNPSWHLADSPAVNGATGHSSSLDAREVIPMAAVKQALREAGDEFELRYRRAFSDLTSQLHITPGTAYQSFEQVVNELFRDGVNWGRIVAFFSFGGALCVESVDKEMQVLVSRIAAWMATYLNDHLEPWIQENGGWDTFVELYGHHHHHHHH

| Compound | Ratio (G101V/WT) [1] | IC50 [1] | TR_FRET EKI G101V/WT selectivty ratio [2] | Ki [3] | Ki [4] | IC50 [5] | Ki [6] | TR_FRET EKI BCLxL/WT selectivty ratio [6] | Ki [7] |
| --- | --- | --- | --- | --- | --- | --- | --- | --- | --- |
| Cc1c(N(C(=O)c2cc(-c3cc4c(cc3C(=O)N3Cc5ccccc5C[C@H]3C)CN(C(=O)Cc3ccc(OCCN5CCN(CC(F)(F)F)CC5)cc3)CC4)n(C)c2C)c2ccc(O)cc2)cc(C#N)n1C [Example 32, N-(5-cyano-1,2-dimethyl-1H-pyrrol-3-yl)-N-(4-hydroxyphenyl)-1,2-dimethyl-5-{7-[(3R)-3-methyl-1,2,3,4-tetrahydroisoquinoline-2-carbonyl]-2-[2-(4-{2-[4-(2,2,2-trifluoroethyl)piperazin-1-yl]ethoxy}phenyl)acetyl]-1,2,3,4-tetrahydroisoquinolin-6-yl}-1H-pyrrole-3-carboxamide] | 5.38 | 0.0393 µM | 2.6 | 1.7 nM | 0.64 nM | 0.0073 µM | 6.7 nM | 10.5 | 1.04 nM |
| Cc1c(N(C(=O)c2cc(-c3cc4c(cc3C(=O)N3Cc5ccccc5C[C@H]3C)CN(C(=O)Cc3ccc(OCCN5CC6(CCS6(=O)=O)C5)cc3)CC4)n(C)c2C)c2ccc(O)cc2)cc(C#N)n1C [Example 37, N-(5-cyano-1,2-dimethyl-1H-pyrrol-3-yl)-5-(2-{2-[4-(2-{1,1-dioxo-1λ^6-thia-6-azaspiro[3.3]heptan-6-yl}ethoxy)phenyl]acetyl}-7-[(3R)-3-methyl-1,2,3,4-tetrahydroisoquinoline-2-carbonyl]-1,2,3,4-tetrahydroisoquinolin-6-yl)-N-(4-hydroxyphenyl)-1,2-dimethyl-1H-pyrrole-3-carboxamide] | 5.36 | 0.0932 µM | 2.7 | 0.3 nM | 0.1 nM | 0.0174 µM | 1.3 nM | 13.0 | 0.28 nM |
| Cc1c(N(C(=O)c2cc(-c3cc4c(cc3C(=O)N3Cc5ccccc5C[C@H]3C)CN(C(=O)Cc3ccc(N5CCN6CC(F)(F)C[C@H]6C5)cc3F)CC4)n(C)c2C)c2ccc(O)cc2)cc(C#N)n1C [Example 40, 5-[2-(2-{4-[(8aS)-7,7-difluoro-hexahydropyrrolo[1,2-a]piperazin-2-yl]-2-fluorophenyl}acetyl)-7-{[(3R)-3-methyl-3,4-dihydro-1H-isoquinolin-2-yl]carbonyl}-3,4-dihydro-1H-isoquinolin-6-yl]-N-(5-cyano-1,2-dimethylpyrrol-3-yl)-N-(4-hydroxyphenyl)-1,2-dimethylpyrrole-3-carboxamide] | 4.54 | 0.0426 µM | 4.4 | 3 nM | 0.68 nM | 0.0094 µM | 7 nM | 10.3 | 2.11 nM |
| CCn1c(C#N)cc(N(C(=O)c2cc(-c3cc4c(cc3C(=O)N3Cc5ccccc5C[C@H]3C)CN(C(=O)Cc3ccc(OCCN5CCOCC5)cc3)CC4)n(C)c2C)c2ccc(O)cc2)c1C [Example 41, N-(5-cyano-1-ethyl-2-methyl-pyrrol-3-yl)-N-(4-hydroxyphenyl)-1,2-dimethyl-5-[7-[(3R)-3-methyl-3,4-dihydro-1H-isoquinoline-2-carbonyl]-2-[2-[4-(2-morpholinoethoxy)phenyl]acetyl]-3,4-dihydro-1H-isoquinolin-6-yl]pyrrole-3-carboxamide] | 5.41 | 0.051 µM | 3.1 | 0.4 nM | 0.12 nM | 0.0094 µM | 2 nM | 16.7 | 0.55 nM |
| Cc1c(N(C(=O)c2cc(-c3cc4c(cc3C(=O)N3Cc5ccccc5C[C@H]3C)CN(C(=O)Cc3ccc(OCCN5CC(F)C5)cc3)CC4)n(C)c2C)c2ccc(O)cc2)cc(C#N)n1C [Example 49, N-(5-cyano-1,2-dimethyl-1H-pyrrol-3-yl)-5-[2-(2-{4-[2-(3-fluoroazetidin-1-yl)ethoxy]phenyl}acetyl)-7-[(3R)-3-methyl-1,2,3,4-tetrahydroisoquinoline-2-carbonyl]-1,2,3,4-tetrahydroisoquinolin-6-yl]-N-(4-hydroxyphenyl)-1,2-dimethyl-1H-pyrrole-3-carboxamide] | 5.91 | 0.0697 µM | 2.3 | 0.2 nM | 0.1 nM | 0.0118 µM | 1.3 nM | 13.0 | 0.17 nM |
| Cc1c(N(C(=O)c2cc(-c3cc4c(cc3C(=O)N3Cc5ccccc5C[C@H]3C)CN(Cc3cc5ccccc5cn3)CC4)n(C)c2C)c2ccc(O)cc2)cc(C#N)n1C [Example 58, N-(5-cyano-1,2-dimethylpyrrol-3-yl)-N-(4-hydroxyphenyl)-5-[2-(isoquinolin-3-ylmethyl)-7-{[(3R)-3-methyl-3,4-dihydro-1H-isoquinolin-2-yl]carbonyl}-3,4-dihydro-1H-isoquinolin-6-yl]-1,2-dimethylpyrrole-3-carboxamide] | 7.95 | 0.0396 µM | 8.1 | 1.7 nM | 0.21 nM | 0.005 µM | 2.3 nM | 11.0 | 0.51 nM |
| Cc1c(N(C(=O)c2cc(-c3cc4c(cc3C(=O)N3Cc5ccccc5C[C@H]3C)CN(C(=O)Cc3ccc(OCCC5CCOCC5)nc3)CC4)n(C)c2C)c2ccc(O)cc2)cc(C#N)n1C [Example 59, N-(5-cyano-1,2-dimethyl-1H-pyrrol-3-yl)-N-(4-hydroxyphenyl)-1,2-dimethyl-5-{7-[(3R)-3-methyl-1,2,3,4-tetrahydroisoquinoline-2-carbonyl]-2-(2-{6-[2-(oxan-4-yl)ethoxy]pyridin-3-yl}acetyl)-1,2,3,4-tetrahydroisoquinolin-6-yl}-1H-pyrrole-3-carboxamide] | 5.15 | 0.0331 µM | 4.6 | 0.7 nM | 0.16 nM | 0.0064 µM | 3 nM | 19.1 | 0.4 nM |
| Cc1c(C(=O)N(c2ccc(O)cc2)c2cc(C#N)n(C(C)C)c2C)cc(-c2cc3c(cc2C(=O)N2Cc4ccccc4C[C@H]2C)CN(C(=O)Cc2ccc(OCCN4CCOCC4)cc2)CC3)n1C [Example 64, N-(5-cyano-1-isopropyl-2-methyl-pyrrol-3-yl)-N-(4-hydroxyphenyl)-1,2-dimethyl-5-[7-[(3R)-3-methyl-3,4-dihydro-1H-isoquinoline-2-carbonyl]-2-[2-[4-(2-morpholinoethoxy)phenyl]acetyl]-3,4-dihydro-1H-isoquinolin-6-yl]pyrrole-3-carboxamide] | 4.78 | 0.0745 µM | 4.5 | 0.5 nM | 0.11 nM | 0.0156 µM | 2.8 nM | 25.5 | 0.79 nM |
| COCCn1c(C#N)cc(N(C(=O)c2cc(-c3cc4c(cc3C(=O)N3Cc5ccccc5C[C@H]3C)CN(C(=O)Cc3ccc(OCCN5CCOCC5)cc3)CC4)n(C)c2C)c2ccc(O)cc2)c1C [Example 68, N-[5-cyano-1-(2-methoxyethyl)-2-methyl-pyrrol-3-yl]-N-(4-hydroxyphenyl)-1,2-dimethyl-5-[7-[(3R)-3-methyl-3,4-dihydro-1H-isoquinoline-2-carbonyl]-2-[2-[4-(2-morpholinoethoxy)phenyl]acetyl]-3,4-dihydro-1H-isoquinolin-6-yl]pyrrole-3-carboxamide] | 5.82 | 0.0556 µM | 5.7 | 0.4 nM | 0.07 nM | 0.0096 µM | 1.6 nM | 24.6 | 0.23 nM |
| Cc1c(N(C(=O)c2cc(-c3cc4c(cc3C(=O)N3Cc5ccccc5C[C@H]3C)CN(C(=O)Cc3cc(F)c(OCCN5CCOCC5)cc3F)CC4)n(C)c2C)c2ccc(O)cc2)cc(C#N)n1C [Example 69, N-(5-cyano-1,2-dimethylpyrrol-3-yl)-5-[2-(2-{2,5-difluoro-4-[2-(morpholin-4-yl)ethoxy]phenyl}acetyl)-7-{[(3R)-3-methyl-3,4-dihydro-1H-isoquinolin-2-yl]carbonyl}-3,4-dihydro-1H-isoquinolin-6-yl]-N-(4-hydroxyphenyl)-1,2-dimethylpyrrole-3-carboxamide] | 9.23 | 0.043 µM | 7.9 | 2 nM | 0.25 nM | 0.0047 µM | 4.3 nM | 17.2 | 0.5 nM |
